Data published in patent publication US8969565B2, “Imidazo[1,2-b]pyridazine-based compounds, compositions comprising them, and methods of their use” (Lexicon Pharmaceuticals, Inc., priority 2012, dated 2015).
Structures can show the parent of a compound that is named as a salt.

What was measured:
AAK1 [1] = molecular target: T1, AAK1 (Homo sapiens, UniProt Q2M2I8); assay: HEK281 cell-based assay (phospho-mu2 Western blot in transfected HEK293F cells); settings: 3 hours incubation, read-out: CBA IC50
T1 construct: HA; expressed in transfected cells; host or cells: HEK293F
T1 sequence (Q2M2I8 1-863 isoform Q2M2I8-2): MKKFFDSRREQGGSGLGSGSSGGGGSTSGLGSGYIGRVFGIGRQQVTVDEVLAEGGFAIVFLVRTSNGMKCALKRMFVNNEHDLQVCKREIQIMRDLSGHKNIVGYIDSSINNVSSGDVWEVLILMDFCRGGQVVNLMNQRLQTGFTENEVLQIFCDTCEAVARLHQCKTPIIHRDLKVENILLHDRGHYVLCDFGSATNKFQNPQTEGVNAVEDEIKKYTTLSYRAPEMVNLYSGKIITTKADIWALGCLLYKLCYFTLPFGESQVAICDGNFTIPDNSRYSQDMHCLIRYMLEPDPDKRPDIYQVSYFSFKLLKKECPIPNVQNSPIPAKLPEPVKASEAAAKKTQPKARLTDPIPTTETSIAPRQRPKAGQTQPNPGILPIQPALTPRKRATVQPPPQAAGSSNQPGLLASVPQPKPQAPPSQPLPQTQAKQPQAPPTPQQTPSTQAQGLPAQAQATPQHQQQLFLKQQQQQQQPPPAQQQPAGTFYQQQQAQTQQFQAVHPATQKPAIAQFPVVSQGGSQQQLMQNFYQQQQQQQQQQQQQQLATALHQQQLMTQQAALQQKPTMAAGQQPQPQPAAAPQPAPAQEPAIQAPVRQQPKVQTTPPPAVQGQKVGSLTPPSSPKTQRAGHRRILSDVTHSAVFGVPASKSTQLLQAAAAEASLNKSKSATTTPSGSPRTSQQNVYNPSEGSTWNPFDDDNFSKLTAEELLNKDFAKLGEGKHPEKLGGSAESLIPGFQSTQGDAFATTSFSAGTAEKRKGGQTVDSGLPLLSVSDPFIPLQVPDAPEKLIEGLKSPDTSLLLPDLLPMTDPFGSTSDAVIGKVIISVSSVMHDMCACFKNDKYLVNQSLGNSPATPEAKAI
How it was run: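 HEK293F cells co-transfected with full-length human AAK1/HA and Flag/AP2M1 were treated next day with 5 compound concentrations (3-fold dilutions) in DMEM+0.5% FBS for 3 hours at 37° C. Lysates were Western blotted for phospho-mu2, with total mu2 detected by anti-Flag.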

AAK1 [2] = molecular target: T1, AAK1; assay: P81 filter plate assay; assay type: biochemical; settings: full-length human AAK1, Mu2 substrate

| melting point | IC50 (AAK1 [1]) [nM] | IC50 (AAK1 [2]) [nM] | Compound |
| --- | --- | --- | --- |
| 154 to 155 °C | – | – | CN(CCNc1ccc2ncc(-c3ccc(C(N)=O)cc3)n2n1)C(=O)NC(C)(C)C |
| 232 to 233 °C (dec.) | – | – | CC(C)OC(=O)N1CCN(c2ccc3ncc(-c4ccccc4)n3n2)CC1 (as salt: hydrochloride) [4-(3-Phenyl-imidazo[1,2-b]pyridazin-6-yl)-piperazine-1-carboxylic acid isopropyl ester] |
| 217 to 218 °C (dec.) | – | – | COc1cnccc1-c1cnc2ccc(N3CCN(C(=O)OC(C)C)CC3)nn12 (as salt: hydrochloride) [Example 5.6.103, 4-[3-(3-Methoxy-pyridin-4-yl)-imidazo[1,2-b]pyridazin-6-yl]-piperazine-1-carboxylic acid isopropyl ester] |
| 299 to 300 °C | – | – | FC(F)(F)CCCNc1ccc2ncc(-c3cccc4c3OCC4)n2n1 (as salt: hydrochloride) [Example 5.6.106, [3-(2,3-Dihydro-benzofuran-7-yl)-imidazo[1,2-b]pyridazin-6-yl]-(4,4,4-trifluoro-butyl)-amine] |
| 195 to 196 °C (dec.) | – | – | CC(C)OC(=O)N1CCN(c2ccc3ncc(-c4ccncc4)n3n2)CC1 (as salt: hydrochloride) [Example 5.6.108, 4-(3-Pyridin-4-yl-imidazo[1,2-b]pyridazin-6-yl)-piperazine-1-carboxylic acid isopropyl ester] |
| 211 to 212 °C (dec.) | – | – | COc1cnccc1-c1cnc2ccc(N3CCN(C(=O)CC(C)(C)C)CC3)nn12 (as salt: hydrochloride) [Example 5.6.114, 1-(4-(3-(3-Methoxypyridin-4-yl)imidazo[1,2-b]pyridazin-6-yl)piperazin-1-yl)-3,3-dimethylbutan-1-one] |
| 243 to 244 °C (dec.) | – | – | COc1ccccc1-c1cnc2ccc(N3CCN(C(=O)OC(C)C)CC3)nn12 (as salt: hydrochloride) [Example 5.6.115, 4-[3-(2-Methoxy-phenyl)-imidazo[1,2-b]pyridazin-6-yl]-piperazine-1-carboxylic acid isopropyl ester] |
| 277 to 278 °C (dec.) | – | – | CC(C)(C)C(=O)N1CCN(c2ccc3ncc(-c4ccccc4)n3n2)CC1 (as salt: hydrochloride) [Example 5.6.125, 2,2-Dimethyl-1-[4-(3-phenyl-imidazo[1,2-b]pyridazin-6-yl)-piperazin-1-yl]-propan-1-one] |
| 216 to 217 °C (dec.) | – | – | CC(C)OC(=O)N1CCN(c2ccc3ncc(-c4ccccc4OC(C)C)n3n2)CC1 (as salt: hydrochloride) [Example 5.6.145, 4-[3-(2-Isopropoxy-phenyl)-imidazo[1,2-b]pyridazin-6-yl]-piperazine-1-carboxylic acid isopropyl ester] |
| 179 to 181 °C (dec.) | – | – | COc1ncccc1-c1cnc2ccc(N3CCN(C(=O)OC(C)C)CC3)nn12 (as salt: hydrochloride) [Example 5.6.151, 4-[3-(2-Methoxy-pyridin-3-yl)-imidazo[1,2-b]pyridazin-6-yl]-piperazine-1-carboxylic acid isopropyl ester] |
| 210 to 211 °C (dec.) | – | – | CC(C)(C)NC(=O)N1CCN(c2ccc3ncc(-c4ccccc4)n3n2)CC1 (as salt: hydrochloride) [N-(tert-Butyl)-4-(3-phenylimidazo[1,2-b]pyridazin-6-yl)piperazine-1-carboxamide] |
| 217 to 218 °C (dec.) | – | – | CC(C)NC(=O)N1CCN(c2ccc3ncc(-c4ccccc4)n3n2)CC1 (as salt: hydrochloride) [N-Isopropyl-4-(3-phenylimidazo[1,2-b]pyridazin-6-yl)piperazine-1-carboxamide] |
| 276 to 277 °C (dec.) | – | – | CC(C)SC(=O)N1CCN(c2ccc3ncc(-c4ccccc4)n3n2)CC1 (as salt: hydrochloride) [S-Isopropyl 4-(3-phenylimidazo[1,2-b]pyridazin-6-yl)piperazine-1-carbothioate] |
| 202 to 203 °C | – | – | O=C(N1CCCC1)N1CCN(c2ccc3ncc(-c4ccccn4)n3n2)CC1 (as salt: hydrochloride) [[4-(3-Pyridin-2-yl-imidazo[1,2-b]pyridazin-6-yl)-piperazin-1-yl]-pyrrolidin-1-yl-methanone] |
| 52 to 54 °C | – | – | CC(C)OC(=O)N1CCN(c2ccc3ncc(Br)n3n2)C(C)C1 (racemic) [Example 5.6.146, Isopropyl 4-(3-bromoimidazo[1,2-b]pyridazin-6-yl)-3-methylpiperazine-1-carboxylate] |
| 144 to 145 °C | – | – | CC(C)OC(=O)N1CCN(c2ccc3ncc(Br)n3n2)CC1C (racemic) [Example 5.6.147, Isopropyl 4-(3-bromoimidazo[1,2-b]pyridazin-6-yl)-2-methylpiperazine-1-carboxylate] |
| 173 to 174 °C | – | – | COc1ccccc1-c1cnc2ccc(N3C[C@H]4C[C@@H]3CN4C(=O)OC(C)C)nn12 (stereo in doubt) (as salt: hydrochloride) [Example 5.6.154, Isopropyl 5-(3-(2-methoxyphenyl)imidazo[1,2-b]pyridazin-6-yl)-2,5-diazabicyclo[2.2.1]heptane-2-carboxylate] |

| melting point | IC50 (AAK1 [1]) [nM] | IC50 (AAK1 [2]) [nM] | Compound |
| --- | --- | --- | --- |
| 148 to 149 °C | – | – | CC(=O)c1ccc(-c2cnc3ccc(N(C)CCCNC(=O)OC(C)(C)C)nn23)s1 [Example 5.6.27, (3-{[3-(5-Acetyl-thiophen-2-yl)-imidazo[1,2-b]pyridazin-6-yl]-methyl-amino}-propyl)-carbamic acid tert-butyl ester] |
| 253 to 254 °C (dec.) | – | – | CCCCNc1ccc2ncc(-c3ccc(-c4noc(=O)[nH]4)cc3)n2n1 [Example 5.6.49, 3-[4-(6-Butylamino-imidazo[1,2-b]pyridazin-3-yl)-phenyl]-4H-[1,2,4]oxadiazol-5-one] |
| 128 to 129 °C | – | – | CN(CCNc1ccc2ncc(Br)n2n1)C(=O)OC(C)(C)C [Example 5.6.56, [2-(3-Bromo-imidazo[1,2-b]pyridazin-6-ylamino)-ethyl]-methyl-carbamic acid tert-butyl ester] |
| – | ≤ 100 | ≤ 10 | COc1cc(-c2cnc3ccc(N4CCN(C(=O)OC(C)C)CC4)nn23)ccn1 [isopropyl 4-(3-(2-methoxypyridin-4-yl)imidazo[1,2-b]pyridazin-6-yl)piperazine-1-carboxylate] |
| – | ≤ 100 | ≤ 10 | CC(C)OC(=O)N1CCN(c2ccc3ncc(-c4ccc[nH]c4=O)n3n2)CC1 [isopropyl 4-(3-(2-oxo-1,2-dihydropyridin-3-yl)imidazo[1,2-b]pyridazin-6-yl)piperazine-1-carboxylate] |
| – | ≤ 1000 | ≤ 10 | CC(C)OC(=O)N1CCN(c2ccc3ncc(-c4cccc(Cl)c4)n3n2)CC1 [isopropyl 4-(3-(3-chlorophenyl)imidazo[1,2-b]pyridazin-6-yl)piperazine-1-carboxylate] |
| – | ≤ 100 | ≤ 10 | COc1cccc(-c2cnc3ccc(N4CCN(C(=O)OC(C)C)CC4)nn23)c1 [isopropyl 4-(3-(3-methoxyphenyl)imidazo[1,2-b]pyridazin-6-yl)piperazine-1-carboxylate] |
| – | ≤ 10 | ≤ 10 | CC(C)OC(=O)N1CCN(c2ccc3ncc(-c4ccc(CN)cc4)n3n2)CC1 [isopropyl 4-(3-(4-(aminomethyl)phenyl)imidazo[1,2-b]pyridazin-6-yl)piperazine-1-carboxylate] |
| – | ≤ 10 | ≤ 10 | COc1cc(C)c(F)cc1-c1cnc2ccc(N3CCN(C(=O)OC(C)C)CC3)nn12 [isopropyl 4-(3-(5-fluoro-2-methoxy-4-methylphenyl)imidazo[1,2-b]pyridazin-6-yl)piperazine-1-carboxylate] |
| – | ≤ 10 | ≤ 10 | COc1ccc(F)cc1-c1cnc2ccc(N3CCN(C(=O)OC(C)C)CC3)nn12 [isopropyl 4-(3-(5-fluoro-2-methoxyphenyl)imidazo[1,2-b]pyridazin-6-yl)piperazine-1-carboxylate] |
| – | ≤ 10 | ≤ 10 | COc1ncc(F)cc1-c1cnc2ccc(N3CCN(C(=O)OC(C)C)CC3)nn12 [isopropyl 4-(3-(5-fluoro-2-methoxypyridin-3-yl)imidazo[1,2-b]pyridazin-6-yl)piperazine-1-carboxylate] |
| – | ≤ 100 | ≤ 10 | O=C(N1CCCCC1)N1CCN(c2ccc3ncc(-c4ccccn4)n3n2)CC1 [piperidin-1-yl(4-(3-(pyridin-2-yl)imidazo[1,2-b]pyridazin-6-yl)piperazin-1-yl)methanone] |
| – | ≤ 1000 | ≤ 10 | COc1ccccc1-c1cnc2ccc(N3CCC(N(C)C(=O)OC(C)(C)C)C3)nn12 (stereo not drawn) [tert-butyl (1-(3-(2-methoxyphenyl)imidazo[1,2-b]pyridazin-6-yl)pyrrolidin-3-yl)(methyl)carbamate] |
| – | ≤ 100 | ≤ 10 | COc1ncccc1-c1cnc2ccc(N3CCC(N(C)C(=O)OC(C)(C)C)C3)nn12 (stereo not drawn) [tert-butyl (1-(3-(2-methoxypyridin-3-yl)imidazo[1,2-b]pyridazin-6-yl)pyrrolidin-3-yl)(methyl)carbamate] |
| – | ≤ 100 | ≤ 100 | CN(C(=O)OC(C)(C)C)C1CCN(c2ccc3ncc(-c4ccccc4)n3n2)C1 (stereo not drawn) [tert-butyl methyl(1-(3-phenylimidazo[1,2-b]pyridazin-6-yl)pyrrolidin-3-yl)carbamate] |
| – | ≤ 100 | ≤ 10 | COc1ncccc1-c1cnc2ccc(N3CC[C@H](N(C)C(=O)OC(C)(C)C)C3)nn12 [{(S)-1-[3-(2-Methoxy-pyridin-3-yl)-imidazo[1,2-b]pyridazin-6-yl]-pyrolidin-3-yl}-methyl-carbamic acid tert-butyl ester] |
| – | ≤ 10 | ≤ 10 | COc1ncccc1-c1cnc2ccc(N3CC[C@H](N(C)C(=O)OC(C)C)C3)nn12 [{(S)-1-[3-(2-Methoxy-pyridin-3-yl)-imidazo[1,2-b]pyridazin-6-yl]-pyrrolidin-3-yl}-methyl-carbamic acid isopropyl ester] |
